We go through 35 compounds from patent publication US9409917B2, “Heterocyclic amide derivatives as P2X7 receptor antagonists” (ACTELION PHARMACEUTICALS LTD., priority 2012, dated 2016).

What is called IC50 is the concentration that gives 50% inhibition.

Sequence of human recombinant P2X7 receptor (Q99572 whole entry): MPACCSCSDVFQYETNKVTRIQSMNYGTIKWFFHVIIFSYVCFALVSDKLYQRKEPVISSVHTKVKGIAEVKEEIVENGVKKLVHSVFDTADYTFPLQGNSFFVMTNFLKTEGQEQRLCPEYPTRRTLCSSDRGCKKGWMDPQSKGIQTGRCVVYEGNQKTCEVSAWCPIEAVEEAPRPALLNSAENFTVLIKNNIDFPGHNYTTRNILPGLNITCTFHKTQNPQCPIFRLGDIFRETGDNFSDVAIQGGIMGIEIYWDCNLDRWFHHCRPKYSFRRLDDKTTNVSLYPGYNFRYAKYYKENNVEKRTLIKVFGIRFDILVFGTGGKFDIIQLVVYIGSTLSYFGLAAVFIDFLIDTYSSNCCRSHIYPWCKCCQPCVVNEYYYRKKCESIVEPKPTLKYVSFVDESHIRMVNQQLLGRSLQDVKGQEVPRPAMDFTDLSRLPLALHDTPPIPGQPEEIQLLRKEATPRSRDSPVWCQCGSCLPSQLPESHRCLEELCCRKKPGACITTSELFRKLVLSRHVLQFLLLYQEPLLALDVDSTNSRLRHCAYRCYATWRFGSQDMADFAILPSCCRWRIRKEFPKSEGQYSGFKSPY

One test addresses human recombinant P2X7 receptor (Homo sapiens (Human), UniProt Q99572). Put plainly: YO-PRO assay: P2X7 receptor antagonistic activity (ATP-induced YO-PRO-1 uptake, FLIPR).
Conditions: not given
As for `Cc1ncc(C(CNC(=O)C2COc3ncccc32)N2CCC(F)(F)CC2)cn1` (single isomer, unassigned) [Example 28, rac-2,3-Dihydro-furo[2,3-b]pyridine-3-carboxylic acid [2-(4,4-difluoro-piperidin-1-yl)-2-(2-methyl-pyrimidin-5-yl)-ethyl]-amide], the concentration for half-maximal inhibition (IC50) was 58.9 nM.

For `N#Cc1ccc(CNC(=O)C2COc3ncccc32)c(Cl)c1` (racemic) [Example 61, rac-2,3-Dihydro-furo[2,3-b]pyridine-3-carboxylic acid 2-chloro-4-cyano-benzylamide], the IC50 was 389 nM.

For the compound `O=C(NCc1ccc(OC(F)(F)F)c(F)c1)C1CCOc2ncccc21` (racemic) [Example 53, rac-3,4-Dihydro-2H-pyrano[2,3-b]pyridine-4-carboxylic acid 3-fluoro-4-trifluoromethoxy-benzylamide], the half-inhibitory concentration (IC50) was 1190 nM.

Take `O=C(NCc1c(Cl)cc(Cl)cc1COCCO)C1COc2ncccc21` (racemic) [Example 93, rac-2,3-Dihydro-furo[2,3-b]pyridine-3-carboxylic acid 2,4-dichloro-6-(2-hydroxy-ethoxymethyl)-benzylamide]: the IC50 was 11.4 nM.

As to `[2H]C([2H])([2H])c1cc(Cl)cc(Cl)c1CNC(=O)C1COc2ncccc21` (racemic) [Example 96, rac-2,3-Dihydro-furo[2,3-b]pyridine-3-carboxylic acid 2,4-dichloro-6-trideuteromethyl-benzylamide], the IC50 came to 2.7 nM.

In the case of `O=C(NCc1c(Cl)cc(Cl)cc1C1CC1)C1COc2ncccc21` (racemic) [Example 21, rac-2,3-Dihydro-furo[2,3-b]pyridine-3-carboxylic acid 2,4-dichloro-6-cyclopropyl-benzylamide], the IC50 worked out at 12.9 nM.

As to `O=C(NCc1ccc(Cl)cc1)C1CCOc2ncccc21` (racemic) [Example 35, rac-3,4-Dihydro-2H-pyrano[2,3-b]pyridine-4-carboxylic acid 4-chloro-benzylamide], the IC50 came to 475 nM.

On to `O=C(NCc1ccc(Cl)cc1Cl)C1CCOc2ncccc21` (racemic) [Example 39, rac-3,4-Dihydro-2H-pyrano[2,3-b]pyridine-4-carboxylic acid 2,4-dichloro-benzylamide], for which the IC50 worked out at 11.8 nM.

With `O=C(NC1CCc2cc(Cl)ccc21)C1COc2ncccc21` (single isomer, unassigned) [Example 100, rac-2,3-Dihydro-furo[2,3-b]pyridine-3-carboxylic acid (5-chloro-indan-1-yl)-amide], the half-inhibitory concentration (IC50) came to 59.9 nM.

For `O=C(NCc1c(Cl)cccc1CO)C1COc2ncccc21` (racemic) [Example 118, rac-2,3-Dihydro-furo[2,3-b]pyridine-3-carboxylic acid 2-chloro-6-hydroxymethyl-benzylamide], the concentration for half-maximal inhibition (IC50) is 304 nM.

For `O=C(NCc1c(Cl)cc(Cl)cc1OCCO)C1COc2ncccc21` (racemic) [Example 50, rac-2,3-Dihydro-furo[2,3-b]pyridine-3-carboxylic acid 2,4-dichloro-6-(2-hydroxy-ethoxy)-benzylamide], the IC50 came to 54.6 nM.

As to `COc1cc(Cl)cc(Cl)c1CNC(=O)C1COc2ncccc21` (racemic) [Example 26, rac-2,3-Dihydro-furo[2,3-b]pyridine-3-carboxylic acid 2,4-dichloro-6-methoxy-benzylamide], the IC50 amounted to 25.6 nM.

Turning to `O=C1CC(NC(=O)C2COc3ncccc32)c2ccccc21` (racemic) [Example 89, rac-2,3-Dihydro-furo[2,3-b]pyridine-3-carboxylic acid (3-oxo-indan-1-yl)-amide], the half-inhibitory concentration (IC50) was determined as 2510 nM.

As to `O=C(NCc1c(Cl)cc(Cl)cc1CO)C1CCOc2ncccc21` (racemic) [Example 51, rac-3,4-Dihydro-2H-pyrano[2,3-b]pyridine-4-carboxylic acid 2,4-dichloro-6-hydroxymethyl-benzylamide], the 50% inhibitory concentration (IC50) turned out to be 5.6 nM.

As for `O=C(NCc1cccc(C(F)(F)F)c1Cl)C1(F)COc2ncccc21` (racemic) [Example 55, rac-3-Fluoro-2,3-dihydro-furo[2,3-b]pyridine-3-carboxylic acid 2-chloro-3-trifluoromethyl-benzylamide], the IC50 stood at 41.6 nM.

Take `O=C(NC(CO)C1CCCCCC1)C1COc2ncccc21` (single isomer, unassigned) [Example 13, rac-2,3-Dihydro-furo[2,3-b]pyridine-3-carboxylic acid (1-cycloheptyl-2-hydroxy-ethyl)-amide]: the IC50 came out at 813 nM.

On to `O=C(NC1CCc2cc(Cl)ccc21)C1COc2ncccc21` (single isomer, unassigned) [Example 99, rac-2,3-Dihydro-furo[2,3-b]pyridine-3-carboxylic acid (5-chloro-indan-1-yl)-amide], for which the IC50 was determined as 301 nM.

For the compound `O=C(NCc1ccc(Oc2ccccc2)cc1)C1COc2ncccc21` (racemic) [Example 44, rac-2,3-Dihydro-furo[2,3-b]pyridine-3-carboxylic acid 4-phenoxy-benzylamide], the concentration for half-maximal inhibition (IC50) was 1120 nM.

As to `O=C(NCc1ccc(Cl)cc1Cl)C1COc2ncccc21` (racemic) [Example 5, rac-2,3-Dihydro-furo[2,3-b]pyridine-3-carboxylic acid 2,4-dichloro-benzylamide], the 50% inhibitory concentration (IC50) worked out at 59.2 nM.

Staying with this test, now noted: read-out: IC50 [nM], antagonistic activities with respect to the P2X7 receptor.
Take `Cc1cc(Cl)cc(Cl)c1CNC(=O)C1COc2c1ccc[n+]2[O-]` (racemic) [Example 115, rac-7-Oxy-2,3-dihydro-furo[2,3-b]pyridine-3-carboxylic acid 2,4-dichloro-6-methyl-benzylamide]: the concentration for half-maximal inhibition (IC50) was 35.4 nM.

Turning to `Cc1cc(Cl)cc(Cl)c1CNC(=O)C1CCOc2c1ccc[n+]2[O-]` (racemic) [Example 41, rac-8-Oxy-3,4-dihydro-2H-pyrano[2,3-b]pyridine-4-carboxylic acid 2,4-dichloro-6-methyl-benzylamide], the IC50 turned out to be 16.3 nM.

As to `O=C(N[C@H](CO)C1CCCCC1)[C@H]1CCOc2ncccc21` (mixture of isomers) [Example 8, (S)-3,4-Dihydro-2H-pyrano[2,3-b]pyridine-4-carboxylic acid ((S)-1-cyclohexyl-2-hydroxy-ethyl)-amide and (R)-3,4-Dihydro-2H-pyrano[2,3-b]pyridine-4-carboxylic acid ((S)-1-cyclohexyl-2-hydroxy-ethyl)-amide], the half-maximal inhibitory concentration (IC50) was 127 nM.

The same test, now with this note: read-out: IC50 [nM], antagonistic activities with respect to the P2X7 receptor; HEK-293 cells expressing human recombinant P2X7 receptor; YO-PRO-1 fluorescence; ATP 250 μM, 90 minutes; highest concentration 10 μM.
Take `O=C(NC(CO)C1CCCCCC1)C1CCOc2ncccc21` (centres unmarked) [Example 52, 3,4-Dihydro-2H-pyrano[2,3-b]pyridine-4-carboxylic acid (1-cycloheptyl-2-hydroxy-ethyl)-amide]: the IC50 worked out at 276 nM.

In the case of `NC(=O)C1CCCCC1NC(=O)C1COc2ncccc21` (centres unmarked) [Example 66, 2,3-Dihydro-furo[2,3-b]pyridine-3-carboxylic acid (2-carbamoyl-cyclohexyl)-amide], the IC50 came out at 5880 nM.

In the case of `O=C(N[C@H](CO)c1ccc(Cl)cc1Cl)C1COc2ncccc21` (single isomer, unassigned) [Example 6], the IC50 was 621 nM.

For the compound `O=C(NCc1c(Cl)cc(Cl)cc1CO)C1COc2ncccc21` (single isomer, unassigned) [Example 24, 2,3-Dihydro-furo[2,3-b]pyridine-3-carboxylic acid 2,4-dichloro-6-hydroxymethyl-benzylamide], the concentration for half-maximal inhibition (IC50) turned out to be 39.4 nM.

For `O=C(NCC(c1cnc(C2CC2)nc1)N1CCOCC1)C1COc2ncccc21` (centres unmarked) [Example 91, 2,3-Dihydro-furo[2,3-b]pyridine-3-carboxylic acid [2-(2-cyclopropyl-pyrimidin-5-yl)-2-morpholin-4-yl-ethyl]-amide], the 50% inhibitory concentration (IC50) came to 215 nM.

For `O=C(NCC(c1ccc(C(F)(F)F)cc1)N1CCC(F)(F)CC1)C1COc2ncccc21` (centres unmarked) [Example 78, 2,3-Dihydro-furo[2,3-b]pyridine-3-carboxylic acid [2-(4,4-difluoro-piperidin-1-yl)-2-(4-trifluoromethyl-phenyl)-ethyl]-amide], the half-inhibitory concentration (IC50) is 122 nM.

Turning to `O=C(N[C@@H]1CCCc2ccccc21)C1COc2ncccc21` (stereo partly drawn) [Example 108, 2,3-dihydrofuro[2,3-b]pyridine-3-carboxylic acid ((R)-1,2,3,4-tetrahydronaphthalen-1-yl)-amide], the IC50 is 191 nM.

As to `Cc1cc(Cl)cc(Cl)c1CNC(=O)C1COc2ncccc21` (single isomer, unassigned) [Example 4, 2,3-Dihydro-furo[2,3-b]pyridine-3-carboxylic acid 2,4-dichloro-6-methyl-benzylamide], the IC50 was found to be 2.9 nM.

For the compound `O=C(NCC(c1cnc(C(F)(F)F)nc1)N1CCC(F)(F)CC1)C1COc2ncccc21` (centres unmarked) [Example 62, 2,3-Dihydro-furo[2,3-b]pyridine-3-carboxylic acid [2-(4,4-difluoro-piperidin-1-yl)-2-(2-trifluoromethyl-pyrimidin-5-yl)-ethyl]-amide], the IC50 was determined as 46.9 nM.

As to `COc1ccc(C(CNC(=O)C2COc3ncccc32)N2CCOCC2)cn1` (centres unmarked) [Example 87, 2,3-Dihydro-furo[2,3-b]pyridine-3-carboxylic acid [2-(6-methoxy-pyridin-3-yl)-2-morpholin-4-yl-ethyl]-amide], the IC50 turned out to be 978 nM.

In the case of `O=C(N[C@@H]1CCCc2ccccc21)C1COc2ncccc21` (stereo partly drawn) [Example 107, 2,3-dihydrofuro[2,3-b]pyridine-3-carboxylic acid ((R)-1,2,3,4-tetrahydronaphthalen-1-yl)-amide], the concentration for half-maximal inhibition (IC50) was determined as 1220 nM.

As to `O=C(NCC(c1cnc(C(F)(F)F)nc1)N1CCOCC1)C1COc2ncccc21` (single isomer, unassigned) [Example 82, 2,3-Dihydro-furo[2,3-b]pyridine-3-carboxylic acid [2-morpholin-4-yl-2-(2-trifluoromethyl-pyrimidin-5-yl)-ethyl]-amide], the IC50 was 2230 nM.

In the case of `O=C(N[C@@H]1CCCc2cccc(Cl)c21)C1COc2ncccc21` (stereo partly drawn) [Example 112, 2,3-Dihydro-furo[2,3-b]pyridine-3-carboxylic acid ((R)-8-chloro-1,2,3,4-tetrahydro-naphthalen-1-yl)-amide], the IC50 amounted to 9.5 nM.
